Here are results for 3 compounds from US20220048915A1 (SHANGHAI PHARMACEUTICALS HOLDING CO., LTD., priority 2018, published 2022).

The test system of data set [1] is TNF-α. In words: Lipopolysaccharide (LPS)-induced inflammation model in mice, TNF-α in serum by ELISA. The class given is in vivo, C57BL/6J mice. How it is done: Male SPF-grade C57BL/6J mice, 6-8 weeks old, provided by Shanghai Ling Chang Biotechnology Co., Ltd. Animals were housed in clean-grade plastic cages (light and dark cycle 12/12 hours, temperature 22±2° C., humidity 50±10%, pellet feed, free drinking water).
1. Mice were weighed and administered according to an administration volume of 10 mL/kg, and oral administration by gavage was given for the first time. Each mouse was administrated at an interval of 3 minutes.
2. One hour after the first administration, LPS 5 mpk was administered intraperitoneally at an administration volume of 10 mL/kg.
3. 4 hours after the first administration, a second oral administration by gavage was given according to the administration volume of 10 mL/kg.
4. 6 hours after LPS intraperitoneal injection, mice were sacrificed, serum and cerebral cortex and hippocampus were sampled. After weighing the wet weight and they were put into liquid nitrogen for quick-freezing and storage.
A general note: An ELISA detects its analyte on a solid surface through an enzyme-linked reagent.

Data set [2] in a line: Pharmacokinetic properties in rats. The note with it: for Cmax / MRT / Tmax / AUClast (po): po 6 mg/kg; for BA: po 6 mg/kg vs iv 3 mg/kg; for AUClast (po): 5-1440 minutes. The class given is in vivo, SD rats. Here is the method: Ten male SD rats, weighing 180-220 g (provided by Shanghai Xipuerbikai Laboratory Animal Co., Ltd, Certificate No.: 20130016008116). The rats were fasted for feed for 12-16 hours before the experiment but water was allowed.
Blood samples were collected from the fundus vein of rats before and at 2, 5, 15, 30, 60, 90, 120, 240, 360, 480, 600 and 1440 minutes after administration, respectively.
Blood samples were collected from the fundus vein of rats before and at 5, 15, 30, 60, 90, 120, 240, 360, 480, 600, 1440 minutes after administration respectively.
(§1) Blood samples were centrifuged at 8000 rpm for 5 minutes, and supernatant plasma was taken. To 50 μL of plasma samples was added 300 μL of acetonitrile containing internal standard (propranolol, 25 ng/mL) to precipitate the protein. After vortexing for 10 minutes and centrifuging at 6000 g and 4° C. for 10 minutes, the supernatant was taken and placed in a 96-well plate for determination of drug concentration in plasma by UPLC/MS-MS.

Data set [3] can be described thus: Pharmacokinetic properties in mice. Type of data set: in vivo, ICR mice. The note with it: for Cmax / MRT / Tmax / AUClast (po): po 10 mg/kg; for BA: po 10 mg/kg vs iv 3 mg/kg; for AUClast (po): 5-1440 minutes. Here is the method: Forty-eight male ICR mice, weighing 18-22 g (provided by Shanghai Xipuerbikai Laboratory Animal Co., Ltd, Certificate No.: 20130016008116). The mice were […] for 12-16 hours before the experiment but water was allowed.
Blood samples were collected from the fundus vein of mice before and at 2, 5, 15, 30, 60, 90, 120, 240, 480, 600, and 1440 minutes of the administration, respectively.
Blood samples were collected from the fundus vein of mice before and at 5, 15, 30, 60, 90, 120, 240, 480 and 1440 minutes of administration, respectively.
2-3 time points were taken for each mouse. The mice were sacrificed at 5, 15, 30, 60 and 1440 minutes after the administration (3 mice per time point), and the brains were taken, rinsed with saline, dried on filter paper and weighed.
as §1

In data set [4] the test system is BV-2 cells. The data set is described as follows: Inhibition of inflammation in LPS-stimulated BV-2 cells (ELISA of inflammatory factors). The class given is cell-based. The note with it: Mus musculus, 100 ng/mL LPS 4 hours; for Emax: read-out: BV-2 Max Inh. (%); for IC50: read-out: BV-2 Rf IC50. How it is done: Normal cultured 8th passage BV-2 cells were taken, and inoculated separately in 96-well plates at a certain cell density. The cell culture plates were cultured at 37° C. and 5% CO2 for 24 hours.
After inoculating the plate for 24 hours, the cell culture medium was removed, and then 100 μL of a 4-fold gradient dilution compound starting from 10,000 nM prepared in DMEM+10% FBS, where High control and Low control contained 0.1% DMSO without compound. With 100 μL per well, the cell culture plate was cultured at 37° C. with 5% CO2 for one hour.
The compound-containing cultures were removed. 100 ng/mL of LPS was prepared with DMEM+10% FBS culture medium, and then the compound was diluted in a 4-fold gradient from 10,000 nM with LPS-containing culture medium. In low control, the compound was replaced with 0.1% DMSO. In High control, 0.1% DMSO was prepared with culture medium without LPS. 100 μL per well, and the cell culture plates were cultured at 37° C. with 5% CO2 for 4 hours.
After 4 hours of LPS stimulation, 110 μL of the culture solution was aspirated, and centrifuged at 2000 rpm for 2 minutes. A further 90 μl of supernatant was aspirated and immediately put into −20° C. for freezing.
ELISA kits were used to detect the expression of inflammatory factors such as IL-10, TNFα, etc. The OD450 signal values were measured by microplate reader. The in vitro inhibitory activity of the compounds was calculated according to the following formula: Inhibition rate: Inhibition rate (%)=(signal value of control−signal value of administration)/(high signal value of control−low signal value of control)×100%. And according to the inhibition rate of each concentration, Graphpad Prism 5.0 was used to curve fit the […] signal values at each concentration and calculate the corresponding IC50, which is shown in Table 1.

Data set [5] concerns the target p38α (Homo sapiens, UniProt Q16539). The data set is described as follows: In vitro inhibition of p38 kinase (LANCE Ultra TR-FRET). The class given is biochemical. The note with it: read-out: Kinase in vitro IC50(nM) p38α. (In general: Time-resolved FRET reads energy transfer from a long-lived donor to a nearby acceptor.)
The target in data set [6] is p38β (Homo sapiens, UniProt Q15759). The data set is described as above. The class given is biochemical. The note with it: read-out: Kinase in vitro IC50(nM) p38β.
Data set [7] concerns the target T1, p38γ (Homo sapiens, UniProt P53778).
T1 sequence (P53778 1-367): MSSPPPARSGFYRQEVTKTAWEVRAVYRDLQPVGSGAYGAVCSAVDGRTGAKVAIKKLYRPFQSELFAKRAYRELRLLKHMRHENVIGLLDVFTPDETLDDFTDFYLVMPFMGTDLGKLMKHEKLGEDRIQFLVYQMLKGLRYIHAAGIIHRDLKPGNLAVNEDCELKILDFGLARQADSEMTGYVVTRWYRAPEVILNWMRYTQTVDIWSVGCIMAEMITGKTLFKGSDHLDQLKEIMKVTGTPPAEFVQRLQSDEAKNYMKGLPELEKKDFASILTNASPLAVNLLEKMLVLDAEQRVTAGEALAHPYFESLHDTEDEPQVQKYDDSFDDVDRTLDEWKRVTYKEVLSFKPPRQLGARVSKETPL
The data set is described as above. Type of data set: biochemical. The note with it: read-out: Kinase in vitro IC50(nM) p38γ.

Data set [8] concerns the target p38 kinase. The note with it: CN108349964A, Table 7 on page 74; read-out: IC50 grade for the inhibitory activity of p38 kinase; cited from earlier work.

“And” between values parts separate entries of the source, which are not always exact repeats. Equal values may be shown once.

Chain of p38α (Q16539 whole entry): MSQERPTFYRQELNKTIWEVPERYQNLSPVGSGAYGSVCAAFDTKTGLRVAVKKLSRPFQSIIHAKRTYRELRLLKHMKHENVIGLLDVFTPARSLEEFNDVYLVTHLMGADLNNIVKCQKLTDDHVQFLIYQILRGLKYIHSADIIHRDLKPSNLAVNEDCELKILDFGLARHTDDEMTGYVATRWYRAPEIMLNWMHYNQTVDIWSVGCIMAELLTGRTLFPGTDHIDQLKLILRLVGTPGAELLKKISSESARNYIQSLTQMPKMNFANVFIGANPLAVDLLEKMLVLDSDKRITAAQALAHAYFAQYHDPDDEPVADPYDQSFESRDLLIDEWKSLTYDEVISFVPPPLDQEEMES
Chain of p38β (Q15759 whole entry): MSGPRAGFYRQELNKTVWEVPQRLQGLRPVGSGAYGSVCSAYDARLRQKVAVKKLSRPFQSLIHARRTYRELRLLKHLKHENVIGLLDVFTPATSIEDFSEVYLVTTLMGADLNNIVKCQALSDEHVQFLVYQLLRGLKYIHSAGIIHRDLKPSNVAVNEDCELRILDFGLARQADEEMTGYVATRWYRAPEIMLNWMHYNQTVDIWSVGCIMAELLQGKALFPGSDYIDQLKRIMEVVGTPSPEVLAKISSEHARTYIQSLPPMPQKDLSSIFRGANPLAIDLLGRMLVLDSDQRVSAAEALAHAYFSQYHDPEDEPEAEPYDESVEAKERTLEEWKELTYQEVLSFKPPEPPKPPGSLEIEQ

As for `O=c1ncn2nc(Sc3ccc(F)cc3F)ccc2c1-c1c(Cl)cccc1Cl` [VX-745, reference compound], the “levels of TNF-α compared with the mouse inflammation model group (G2)” value in data set [1] (8 mpk, P<0.01) is on record as “significantly reduced”. In data set [1] (serum, individual animals, 8 mg/kg po bid interval 4 h, 6 hours after LPS 5 mpk ip), the TNF-α conc. is 142.0 pg/mL and 151.7 pg/mL and 105.5 pg/mL and 155.5 pg/mL and 55.4 pg/mL and 105.7 pg/mL and 54.3 pg/mL and 71.2 pg/mL and 24.0 pg/mL and 155.2 pg/mL. Moreover, the clearance was 25 mL/min/kg in data set [2] (male, SD, plasma, rat, iv 3 mg/kg) and 18.3 mL/min/kg in data set [3] (male, ICR, mouse, plasma, iv 3 mg/kg). Moreover, the Vd is 4.5 L/kg in data set [2] (male, SD, plasma, rat, iv 3 mg/kg, read-out: Vss (iv)) and 2.3 L/kg in data set [3] (male, ICR, mouse, plasma, iv 3 mg/kg, read-out: Vss (iv)). Further, the Cmax came to 476 ng/mL in data set [2] (male, SD, plasma, rat) and 750 ng/mL in data set [3] (male, ICR, mouse, plasma). The MRT was 4.3 h in data set [2] (male, SD, plasma, rat) and 3.2 h in data set [3] (male, ICR, mouse, plasma). Besides, the Tmax came to 0.8 h in data set [2] (male, SD, plasma, rat) and 0.8 h in data set [3] (male, ICR, mouse, plasma). Besides, the “Thalf (iv)” value in data set [2] (rat, iv 3 mg/kg) is recorded as 5.2 h; in data set [3] (iv 3 mg/kg), 3.9 h. For the same compound, the BA in data set [2] (rat) is listed as 41.2%; in data set [3], 20.2%. Further, the “AUClast (po)” value was 1644.5 (h)*(ng/mL) in data set [2] (rat) and 1844 (h)*(ng/mL) in data set [3]. In addition, the Emax in data set [4] is 99.7%. The IC50 in data set [4] is 4.26 nM.
Take `O=c1ncn2nc(Oc3ccc(F)cc3)ccc2c1-c1c(Cl)cccc1Cl` [Compound I-19, 5-(2,6-dichlorophenyl)-2-(4-fluorophenoxy)-6H-pyrimido[1,6-b]pyridazin-6-one]: the IC50 in data set [5] is 22.4 nM; in data set [6], 391 nM; in data set [4], 53.8 nM; in data set [7], above 3330 nM. In addition, the Cmax in data set [2] (male, SD, plasma, rat) is 1090 ng/mL; in data set [3] (male, ICR, mouse, plasma), 1820 ng/mL. In addition, the MRT was 5.73 h in data set [2] (male, SD, plasma, rat) and 5.55 h in data set [3] (male, ICR, mouse, plasma). In addition, the Tmax in data set [2] (male, SD, plasma, rat) came out at 3 h; in data set [3] (male, ICR, mouse, plasma), 1.33 h. The “Thalf (iv)” value in data set [2] (rat, iv 3 mg/kg) worked out at 2.81 h; in data set [3] (iv 3 mg/kg) it was 3.73 h. Besides, the values for the BA in data set [2] (rat) and in data set [3] were 87.87% and 158.7%, respectively. In addition, the “AUClast (po)” value was 7172 (h)*(ng/mL) in data set [2] (rat) and 11457 (h)*(ng/mL) in data set [3]. Moreover, the “absorption compared with the positive compound VX-745 at the same dose” value is “significantly higher” in data set [2] (rats, 6 mg/kg) and “significantly higher” in data set [3] (10 mg/kg). Also, the Emax in data set [4] turned out to be 61.7%.
`O=c1ncn2nc(Sc3ccc(F)cc3)ccc2c1-c1c(Cl)cccc1Cl` [compound 12]: the IC50 in data set [8] is 100 to 1000 nM.

A word on the clearance: it is the rate of elimination divided by the concentration. One may read the Cmax as the maximum level reached in the sampled fluid or tissue. In general, MRT refers to the average time that molecules of a dose stay in the body. As a reminder, the Tmax is the time at which the peak concentration occurs. In general, IC50 refers to the concentration that gives 50% inhibition.
